Structures can show the parent of a compound that is named as a salt. Where two headings read alike, the source gives them in different places.
Assays:
Hep3B = assay: Quantitative HIF1α MSD immunoassay, Hep3B; format: cell-based; settings: Homo sapiens, read-out: HIF1α EC50
Experimental: Cells were seeded into 96-well cell culture plates (150 μl culture volume) at approximately 60–70% confluency at least 12 h prior to the compound treatment. Half of the culture medium (75 μl/well) were removed and 75 μl/well of medium containing the desired concentrations of compounds were added into cells for 5 h. The cell medium was then removed and the cells were washed once with phosphate buffered saline (PBS), followed by the addition of lysis buffer (20 mM Tris pH 7.4, 450 mM NaCl, 1 mM EDTA, 1 mM EGTA, 0.5% Triton X-100, 1x complete protease inhibitor cocktail and 100 μM DFO). Plates were then left at 4°C with shaking. […] Plates were washed thrice with Tris Wash Buffer, added with 150 μl/well 2X Read Buffer (R92TC, Meso Scale Discovery) before being read with an MSD Sector S600 plate reader (Meso Scale Discovery). Signals generated were normalized to “lysis buffer-only” controls.
To quantify the cellular efficiency of PHD inhibition, we developed an electrochemiluminescence-based assay for the quantification of HIF1α levels using the Meso Scale Discovery (MSD, http://www.mesoscale.com) technology (HIF1α MSD assay), which is based on the capture and detection of HIF1α protein using two specific HIF1α antibodies. […]

FBXL11 (KDM2A) = target: T1, FBXL11 (KDM2A) (Homo sapiens, UniProt Q9Y2K7); assay: KDM AlphaScreen assay, FBXL11
T1 sequence (Q9Y2K7 1-1162): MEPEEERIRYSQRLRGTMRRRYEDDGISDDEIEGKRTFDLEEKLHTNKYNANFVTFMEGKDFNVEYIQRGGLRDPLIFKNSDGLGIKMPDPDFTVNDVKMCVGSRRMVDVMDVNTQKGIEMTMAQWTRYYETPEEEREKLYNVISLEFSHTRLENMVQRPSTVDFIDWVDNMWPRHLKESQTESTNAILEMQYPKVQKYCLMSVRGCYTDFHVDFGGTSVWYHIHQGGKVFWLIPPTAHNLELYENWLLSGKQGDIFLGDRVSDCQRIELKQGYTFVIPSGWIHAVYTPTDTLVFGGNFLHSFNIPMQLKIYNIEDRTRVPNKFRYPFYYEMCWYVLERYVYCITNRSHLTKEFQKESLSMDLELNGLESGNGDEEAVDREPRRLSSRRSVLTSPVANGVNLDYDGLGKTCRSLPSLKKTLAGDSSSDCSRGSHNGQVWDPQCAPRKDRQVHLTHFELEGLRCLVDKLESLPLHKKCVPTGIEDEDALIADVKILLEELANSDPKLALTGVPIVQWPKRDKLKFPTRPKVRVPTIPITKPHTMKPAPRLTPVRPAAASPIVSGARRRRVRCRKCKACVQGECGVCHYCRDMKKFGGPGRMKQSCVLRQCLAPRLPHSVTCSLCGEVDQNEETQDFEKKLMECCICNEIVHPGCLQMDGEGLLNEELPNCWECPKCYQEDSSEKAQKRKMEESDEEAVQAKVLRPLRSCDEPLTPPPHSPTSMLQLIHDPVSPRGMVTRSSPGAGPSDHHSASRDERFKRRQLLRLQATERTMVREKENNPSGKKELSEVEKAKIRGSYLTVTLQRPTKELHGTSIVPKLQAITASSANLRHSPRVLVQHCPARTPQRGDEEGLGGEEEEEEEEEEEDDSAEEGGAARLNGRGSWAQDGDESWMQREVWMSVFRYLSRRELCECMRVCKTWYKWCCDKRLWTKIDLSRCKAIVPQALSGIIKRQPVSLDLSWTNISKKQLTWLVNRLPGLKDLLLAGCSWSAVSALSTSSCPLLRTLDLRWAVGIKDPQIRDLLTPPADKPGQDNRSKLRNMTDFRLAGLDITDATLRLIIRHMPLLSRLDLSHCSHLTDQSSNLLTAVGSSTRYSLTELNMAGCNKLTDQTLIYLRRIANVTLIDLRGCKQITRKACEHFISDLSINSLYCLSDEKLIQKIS
Experimental: Inhibition assays for PHD2 (AlphaScreen) [9], the KDMs (AlphaScreen) [17], BBOX [18] and FTO [19] were carried out as previously described. […] IC50 values were calculated using nonlinear regression with normalized dose-response fit using GraphPad Prism 5.

HIF target genes = assay: qRT-PCR of HIF target genes in mouse brain; format: in vivo, C57BL/6 mice; settings: 1 h treatment
Experimental: All animal experiments were performed on male C57BL/6 mice aged 3 months (purchased from Harlan Laboratories, Blackthorn) housed in specific pathogen free conditions with free access to water and standard chow. Mice were injected intraperitonially with the inhibitor (dissolved in Hanks’ buffered saline solution, pH 7.0, 5% DMSO final) or vehicle at the indicated doses for the indicated time as previously described. Tissues from treated mice were harvested and ‘snap frozen’ with liquid nitrogen before being stored at -80°C. For immunoblotting, a portion of the tissues was removed, weighed and homogenised in urea/SDS buffer before being analysed by immunoblotting with HIF1α rabbit polyclonal antibody (10006421, Cayman Chemical, 1:1000) or HIF2α rabbit polyclonal antibody (PM9 [27], 1:1000). […]
Genomic DNA were removed from total RNA preparation using the TURBO DNA-free kit (AM1907, Life Technologies) according to manufacturer’s protocol. […] Relative quantifications were calculated using the ∆∆Ct method normalised to β-actin. […]
To investigate whether the induction of HIFα in the mouse brain has an effect on HIF target genes, we performed quantitative real-time PCR (qRT-PCR) analyses on HIF target genes (including those involved in angiogenesis, i.e. Vegfa, Adm and Il6).

CC(C)(C)OC(=O)c1ccc(-n2[nH]cc(-n3ccnn3)c2=O)nc1 [IOX4, t-Butyl 6-(5-oxo-4-(1H-1,2,3-triazol-1-yl)-2,5-dihydro-1H-pyrazol-1-yl)nicotinate]
EC50 (Hep3B; 5 h): 11.1 µM | IC50 (FBXL11 (KDM2A)): 20 µM | mRNA levels of HIF target genes Bnip3, Ldha and Il6 in mouse brain (HIF target genes): remain unaffected | mRNA levels of HIF target genes Epo, Vegfa and Adm in mouse brain (HIF target genes): induced in a dose-dependent manner

O=C(O)c1ccc(-n2[nH]cc(-n3ccnn3)c2=O)nc1 [compound 1, 6-(5-oxo-4-(1H-1,2,3-triazol-1-yl)-2,5-dihydro-1H-pyrazol-1-yl)pyridine-3-carbocylic acid hydrochloride]
IC50 (FBXL11 (KDM2A)): 20 µM

O=C(O)CNC(=O)c1c(O)c2ccccc2n(Cc2ccccc2)c1=O [IOX2]
EC50 (Hep3B; 5 h treatment, MSD assay): 86 µM

From paper PMC4492579, “Potent and Selective Triazole-Based Inhibitors of the Hypoxia-Inducible Factor Prolyl-Hydroxylases with Activity in the Murine Brain” (PLoS ONE, 2015)
